Data as given in patent US20060147548A1, “Therapeutic delivery of carbon monoxide” (priority 2002, published 2006).

How the values were obtained:
[1] = target: T1, purified guanylate cyclase (Bos taurus, UniProt P16068); settings: in vitro; literature reference (8); cited from earlier work
T1 sequence (P16068 1-619): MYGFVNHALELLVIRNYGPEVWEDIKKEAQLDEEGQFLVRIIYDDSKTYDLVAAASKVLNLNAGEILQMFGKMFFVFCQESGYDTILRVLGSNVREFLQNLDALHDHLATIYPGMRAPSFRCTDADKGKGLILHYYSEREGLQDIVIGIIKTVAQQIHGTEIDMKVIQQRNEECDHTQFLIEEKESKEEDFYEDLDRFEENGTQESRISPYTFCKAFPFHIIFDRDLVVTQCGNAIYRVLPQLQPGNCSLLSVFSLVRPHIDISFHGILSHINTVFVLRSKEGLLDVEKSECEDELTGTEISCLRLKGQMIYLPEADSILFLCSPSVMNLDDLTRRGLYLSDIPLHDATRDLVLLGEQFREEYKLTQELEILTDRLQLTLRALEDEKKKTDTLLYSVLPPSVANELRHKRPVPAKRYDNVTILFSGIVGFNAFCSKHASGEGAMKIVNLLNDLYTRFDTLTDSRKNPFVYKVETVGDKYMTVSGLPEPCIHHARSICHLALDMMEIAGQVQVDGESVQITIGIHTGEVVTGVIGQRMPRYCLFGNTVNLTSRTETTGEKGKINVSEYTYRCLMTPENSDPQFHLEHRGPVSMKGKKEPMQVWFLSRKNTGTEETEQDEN
T1 sequence (P19687 1-691 partner): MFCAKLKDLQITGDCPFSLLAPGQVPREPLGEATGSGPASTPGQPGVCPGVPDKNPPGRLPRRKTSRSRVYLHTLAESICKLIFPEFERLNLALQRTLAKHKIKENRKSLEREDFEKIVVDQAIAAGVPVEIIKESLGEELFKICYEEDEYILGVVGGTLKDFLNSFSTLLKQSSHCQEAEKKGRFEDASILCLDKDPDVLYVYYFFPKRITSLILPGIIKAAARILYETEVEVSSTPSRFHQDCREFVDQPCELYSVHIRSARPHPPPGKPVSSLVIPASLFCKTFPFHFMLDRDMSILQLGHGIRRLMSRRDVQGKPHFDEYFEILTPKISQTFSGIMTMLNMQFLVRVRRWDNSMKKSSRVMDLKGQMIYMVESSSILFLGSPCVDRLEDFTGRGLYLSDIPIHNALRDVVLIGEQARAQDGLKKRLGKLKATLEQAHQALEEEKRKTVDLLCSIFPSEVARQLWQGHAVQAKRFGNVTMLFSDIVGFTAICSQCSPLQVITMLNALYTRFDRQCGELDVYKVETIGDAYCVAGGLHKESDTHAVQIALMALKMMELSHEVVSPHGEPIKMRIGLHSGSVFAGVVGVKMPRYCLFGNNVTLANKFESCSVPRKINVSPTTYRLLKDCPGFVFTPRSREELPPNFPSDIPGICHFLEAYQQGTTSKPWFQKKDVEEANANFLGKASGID

[2] = test system: Myoglobin (Mb); assay: Conversion of myoglobin (Mb) to carbon monoxide myoglobin (MbCO), CO release; assay type: biochemical; settings: for conversion of Mb to MbCO: Mb 50 μM, absorption spectrum
Source text: This method has been previously developed to monitor and determine the amount of CO released from CO-RMs (7).

[3] = test system: isolated aortic rings pre-contracted with phenylephrine; assay: Relaxation of isolated rat aortic rings pre-contracted with phenylephrine; assay type: cell-based; settings: for relaxation as percentage of the maximal phenylephrine-mediated contraction: Example 1; for percentage of relaxation: Example 4A, 100 μM CORM-3
Description: The method for the preparation of isolated aortic rings has been previously described (5; 7). The thoracic aorta was isolated from Sprague-Dawley rats (350-450 g) and flushed with cold Krebs-Henseleit buffer (4° C., pH 7.4) containing (in mM): 118 NaCl, 4.7 KCl, 1.2 KH2PO4, 1.2 MgSO4.7H2O, 22 NaHCO3, 11 Glucose, 0.03 K^+EDTA, 2.5 CaCl2 and supplemented with 10 AM indomethacin. Each aorta was trimmed of adventitial tissue and ring sections (˜3 mm length) were produced from the mid aortic segment. The rings were then mounted between two stainless steel hooks in 9-ml organ baths containing Krebs-Henseleit buffer which was maintained at 37° C. and continuously gassed with 95% O2-5% CO2. One hook was attached to a Grass FT03 isometric force transducer whilst the other was anchored to a sledge for regulation of the resting tension of the aortic ring. The rings were initially equilibrated for 30 min under a resting tension of 2 g which was previously determined to be optimal. Continuous recording of tension was made on a Grass 7D polygraph (Grass Instruments, Quincy, Mass.) in combination with a Biopac MP100 system using AcqKnowledge™ software (Linton Instruments, Norfolk, UK). Before each protocol was carried out, rings were contracted with a standard dose of KCl (100 mM) in order to provide an internal reference and to control for variability in contractile responsiveness between tissues.
The preparation of isolated aortic rings and recording of tension was as in Example 1. Before each protocol was carried out, rings were contracted with a standard dose of KCl (100 mM) in order-to provide an internal reference and to control for variability in contractile responsiveness between tissues. […] An additional set of experiments was performed in which the vascular endothelium was removed from the aortic tissue prior to CORM-3 addition.

[4] = test system: Lewis rats; assay: Effect on mean arterial pressure in anaesthetised rats; assay type: in vivo, rat
Description: Lewis rats (280-350 g) were anaesthetised by intramuscular injection of 1 ml/kg Hypnorm. Specially designed femoral artery and venous catheters were then surgically implanted as previously described (5; 6) and blood pressure monitored continuously using a polygraph recorder.

[5] = test system: human platelets; settings: increased cGMP levels by YC-1 in the presence of CO; literature reference (1); cited from earlier work
[6] = test system: isolated aortic rings pre-contracted with phenylephrine; settings: stated as known; species not given; cited from earlier work
[7] = test system: Myoglobin (Mb); settings: stated as known; cited from earlier work

## [C-]#[O+] [CO, carbon monoxide]
[1]
  increase of enzymatic activity of purified guanylate cyclase: 4.4 fold
[2]
  conversion of Mb to MbCO: rapid conversion to carbon monoxide myoglobin (MbCO)

## NCC(=O)O.[C-]#[O+].[C-]#[O+].[C-]#[O+].[Cl][Ru] [CORM-3, Ru(CO)3Cl(NH2CH2CO2)]
[3]; CORM-3 25 μM, after first addition, presence of YC-1 (5 μM, 30 min pre-incubation)
  relaxation as percentage of the maximal phenylephrine-mediated contraction: 33%
[3]; CORM-3 25 μM, after second addition, presence of YC-1 (5 μM, 30 min pre-incubation)
  relaxation as percentage of the maximal phenylephrine-mediated contraction: 66.6%
[3]; CORM-3 25 μM, after third addition, presence of YC-1 (5 μM, 30 min pre-incubation)
  relaxation as percentage of the maximal phenylephrine-mediated contraction: 80.9%
[3]; CORM-3 25 AM per addition, after first addition, absence of YC-1
  relaxation as percentage of the maximal phenylephrine-mediated contraction: 10.3%
[3]; CORM-3 25 AM per addition, after second addition, absence of YC-1
  relaxation as percentage of the maximal phenylephrine-mediated contraction: 24.1%
[3]; CORM-3 25 AM per addition, after third addition, absence of YC-1
  relaxation as percentage of the maximal phenylephrine-mediated contraction: 38%
[3]; Example 3, 100 μM, within few minutes from addition
  relaxation: approximately 54%
[3]; first addition, in the presence of ODQ (10 μM, 15 min prior)
  percentage of relaxation: 1.0±0.8%
[3]; first addition, in the presence of glibenclamide (10 μM, 30 min prior)
  percentage of relaxation: 13.2±4.1%
[3]; first cumulative addition, mean±S.E.M., 6 experiments
  percentage of relaxation: 37.5±5.3%
[3]; second cumulative addition, mean±S.E.M., 6 experiments
  percentage of relaxation: 48.2±4.4%
[3]; third cumulative addition, mean±S.E.M., 6 experiments
  percentage of relaxation: 53.9±4.3%
[3]; Example 4B, 25 μM CORM-3, after the third addition, pre-treatment with YC-1 (1 μM, 30 min)
  relaxation: 77%
[3]; Example 4B, 25 μM CORM-3 alone, after the third addition
  relaxation: approximately 31%
[3]; Example 4B, 50 μM and 100 μM CORM-3, YC-1 1 μM pre-treatment
  effect of YC-1 on CORM-3-mediated relaxation: potentiation of relaxation
[3]; Example 4C, CORM-3 200 and 400 μM, L-NAME present
  effect of L-NAME on relaxation at increased CORM-3 concentration: reversed
[3]; Example 4C, CORM-3 alone, first addition
  relaxation: approximately 37%
[3]; Example 4C, CORM-3 first addition, presence of L-NAME (100 μM) in the organ bath
  relaxation: 5%
[3]; Example 4C, endothelium removed, unless CORM-3 increased to 400 μM
  response of aortic rings without the endothelium (−E): did not respond to CORM-3 in the same way as intact vessels
[4]; CORM-3 30 μmoles/kg i.v. first injection, YC-1 1.2 μmoles/kg i.v. 5 min before
  decrease in MAP: 37.0±2.4 mmHg
[4]; CORM-3 30 μmoles/kg i.v. second injection, YC-1 1.2 μmoles/kg i.v. 5 min before first injection
  decrease in MAP: 22.0±2.3 mmHg
[4]; CORM-3 alone 30 μmoles/kg i.v., first injection, recorded 20 min after injection
  decrease in MAP: 9.4±2.8 mmHg
[4]; CORM-3 alone 30 μmoles/kg i.v., second bolus 20 min after the first
  decrease in MAP: 13.3±4.9 mmHg
[2]
  conversion of Mb to MbCO: formation of MbCO is observed
[2]; incubating overnight at 37° C. in phosphate buffer at pH=7.4
  loss of CO on incubation: rapidly lost

## [N]=O [NO, nitric oxide]
[1]
  increase of enzymatic activity of purified guanylate cyclase: 130 fold

## OCc1ccc(-c2nn(Cc3ccccc3)c3ccccc23)o1 [YC-1, 3-(5′-hydroxymethyl-2′-furyl)-1-benzyl-indazole, reference compound]
[3]; Example 4B, pre-treatment with YC-1 alone (1 μM, 30 min)
  change in vessel contractility: did not cause any significant change in vessel contractility
[4]; YC-1 1.2 μmoles/kg i.v., after 5 min, before CORM-3
  decrease in MAP: 7.0±1.6 mmHg
[5]
  inhibition of platelet aggregation: complete inhibition of platelet aggregation

## [Fe(SPh)2(2,2′-bipyridine) (CO)2]
[6]
  dilatation of pre-contracted aortic rings: capable of promoting dilatation of pre-contracted aortic rings
[7]
  release of CO to myoglobin in solution: does not release CO to myoglobin in solution
